PubChem BioAssay AID493132 (Sanford-Burnham Center for Chemical Genomics, 2011)
The source made the active and inactive calls.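 Rule for the calls: active = EC50 below 100 µM for activating human gut alkaline phosphatase; inactive = the rest.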

These molecules were tested against Intestinal-type alkaline phosphatase (Homo sapiens) (UniProt P09923) (assay: potency of intestinal alkaline phosphatase activation – biochemical, luminescence, SAR follow-up (AID 493132)). Conditions: purified IAP, CDP-Star luminescence, 30 min.
Chain of Intestinal-type alkaline phosphatase (Homo sapiens) (P09923 whole entry, looked up): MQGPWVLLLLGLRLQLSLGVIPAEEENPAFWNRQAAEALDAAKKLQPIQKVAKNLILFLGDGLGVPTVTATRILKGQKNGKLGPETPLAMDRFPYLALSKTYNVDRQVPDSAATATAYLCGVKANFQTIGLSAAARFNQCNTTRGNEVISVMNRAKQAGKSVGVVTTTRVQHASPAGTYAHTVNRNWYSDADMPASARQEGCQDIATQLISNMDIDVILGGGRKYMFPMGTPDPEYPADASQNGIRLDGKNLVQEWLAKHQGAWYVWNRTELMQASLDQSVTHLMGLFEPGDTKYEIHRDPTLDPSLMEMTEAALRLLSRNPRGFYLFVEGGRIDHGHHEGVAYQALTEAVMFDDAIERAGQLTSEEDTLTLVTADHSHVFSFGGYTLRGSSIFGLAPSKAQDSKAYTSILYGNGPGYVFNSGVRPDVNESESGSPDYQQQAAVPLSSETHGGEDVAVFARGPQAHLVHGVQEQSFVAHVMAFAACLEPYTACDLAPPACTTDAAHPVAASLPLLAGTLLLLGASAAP

SMILES	EC50
CC(C)Oc1ccccc1/C=N/NC(=O)C(=O)N/N=C/c1ccccc1OC(C)C	36.4 µM
COc1cc(OC)c(OC)cc1/C=N/NC(=O)C(=O)N/N=C/c1cc(OC)c(OC)cc1OC	> 100 µM (inactive)
COc1ccc(-c2csc(Nc3cccc4ccccc34)n2)cc1F	> 100 µM (inactive)
O=C(N/N=C\c1ccc2c(c1)OCO2)C(=O)N/N=C/c1ccc2c(c1)OCO2	> 100 µM (inactive)
O=C(N/N=C/c1c(O)ccc2ccccc12)C(=O)N/N=C/c1c(O)ccc2ccccc12	> 100 µM (inactive)
N#CCOc1ccccc1/C=N/NC(=O)C(=O)N/N=C/c1ccccc1OCC#N	86.5 µM
COc1ccc(/C=N/NC(=O)C(=O)N/N=C/c2ccc(OC)c(OC)c2)cc1OC	> 100 µM (inactive)
COc1ccc(-c2cc(C(=O)NN=Cc3c(O)ccc4ccccc34)[nH]n2)cc1	19.6 µM
COc1cc(/C=N/NC(=O)C(=O)N/N=C/c2ccc(O)c(OC)c2)ccc1O	27.9 µM
O=C(NN=Cc1ccccc1)C(=O)NN=Cc1ccccc1	30.7 µM
CC(=O)Nc1ccc(/C=N/NC(=O)C(=O)N/N=C/c2ccc(NC(C)=O)cc2)cc1	> 100 µM (inactive)
CCCCOc1ccc(/C=N/NC(=O)C(=O)N/N=C/c2ccc(OCCCC)cc2)cc1	> 100 µM (inactive)
O=C(N/N=C\c1cccc(O)c1)C(=O)N/N=C/c1cccc(O)c1	45 µM
O=C(CCN1C(=O)/C(=C/c2ccccc2Cl)SC1=S)NNC(=O)c1ccccc1O	25.5 µM
O=C(N/N=C/c1ccccc1C(=O)O)C(=O)N/N=C/c1ccccc1C(=O)O	39.3 µM
CN(C)c1ccc(/C=N/NC(=O)C(=O)N/N=C/c2ccc(N(C)C)cc2)cc1	> 100 µM (inactive)
COC(=O)c1ccc(/C=N/NC(=O)C(=O)N/N=C/c2ccc(C(=O)OC)cc2)cc1	> 100 µM (inactive)
COc1ccc(OC)c(/C=N/NC(=O)C(=O)N/N=C/c2cc(OC)ccc2OC)c1	90.7 µM
CC(=NNC(=O)C(=O)NN=C(C)c1cccc(O)c1)c1cccc(O)c1	84.6 µM
COc1cccc(C=NNC(=O)C(=O)NN=Cc2cccc(OC)c2OC)c1OC	30.4 µM
COc1cc(/C=N/NC(=O)C(=O)N/N=C/c2cc(OC)c(OC)c(OC)c2)cc(OC)c1OC	> 100 µM (inactive)
O=C(N/N=C/c1ccc2c(c1)OCO2)C(=O)N/N=C/c1ccc2c(c1)OCO2	> 100 µM (inactive)
O=C(N/N=C/c1ccc(O)cc1)C(=O)N/N=C/c1ccc(O)cc1	43.9 µM
CCN(CC)c1ccc(/C=N/NC(=O)C(=O)N/N=C/c2ccc(N(CC)CC)cc2O)c(O)c1	> 100 µM (inactive)
CCOc1cc(/C=N/NC(=O)C(=O)N/N=C/c2ccc(O)c(OCC)c2)ccc1O	> 100 µM (inactive)

Results, then the molecule that gave them:

EC50	SMILES
14.6 µM	Cc1cc(C(=O)NN=Cc2cccc([N+](=O)[O-])c2O)n[nH]1
11 µM	O=C(N/N=C/c1cc(Br)ccc1O)C(=O)N/N=C/c1cc(Br)ccc1O
6.5 µM	O=C(NN=Cc1ccc(O)cc1O)C(=O)NN=Cc1ccc(O)cc1O
8.68 µM	CC(C)C(=O)NC(=S)Nc1ccccc1C(=O)Nc1ccccc1
9.33 µM	Cc1cc(C(=O)N/N=C/c2cc(Br)ccc2O)n[nH]1
6.59 µM	C/C(=N\NC(=O)c1cc(C)[nH]n1)c1ccc2ccccc2c1O
13.6 µM	Cc1cc(C(=O)NN=Cc2cc(Cl)cc([N+](=O)[O-])c2O)n[nH]1
10.7 µM	CC1C(=O)NN=C1C(=O)NN=Cc1ccc(O)cc1O (stereo unspecified)
11.8 µM	COc1cc(OC)cc(C(=O)NNC(=O)c2nn(C)c(=O)c3ccccc23)c1
8.62 µM	C/C(=N\NC(=O)c1[nH]nc2c1CCc1ccccc1-2)c1ccccc1O
6.78 µM	OC(c1nc2ccc(F)cc2[nH]1)C(O)c1nc2ccc(F)cc2[nH]1 (stereo unspecified)
9.91 µM	Cn1cccc1-c1cc(C(=O)NN=Cc2cc(Br)ccc2O)[nH]n1
9.65 µM	COc1cccc(C=NNC(=O)c2[nH]nc3c2CCc2ccccc2-3)c1O
9.12 µM	COc1cccc(C=NNC(=O)C(=O)NN=Cc2cccc(OC)c2O)c1O
6.19 µM	Cc1ccc(-c2cc(C(=O)NN=Cc3ccccc3O)n[nH]2)o1
8.6 µM	COc1cccc(C=NNC(=O)c2cc(-c3cccn3C)n[nH]2)c1O

EC50	SMILES
0.689 µM	O=C1Nc2ccc(Br)cc2C12NNc1ccccc1O2 (stereo unspecified)
8.25 µM	O=C(N/N=C/c1ccccc1O)c1n[nH]c2c1CCC2
7.63 µM	CCOc1cccc(C=NNC(=O)c2cc(C3CC3)[nH]n2)c1O
11.3 µM	O=C(N/N=C/c1cc(Br)ccc1O)c1cc(C2CC2)[nH]n1
19.2 µM	COc1cc(/C=N\NC(=O)C(=O)N/N=C/c2cc(OC)c(O)c(OC)c2)cc(OC)c1O
9.64 µM	O=C(NN=Cc1c(O)ccc2ccccc12)c1[nH]ncc1Br
15.3 µM	O=C(NNC(=S)NC(=O)c1ccccc1[N+](=O)[O-])c1ccccc1O
11.1 µM	O=C(N/N=C/c1c(O)ccc2ccccc12)c1cc(-c2cccs2)[nH]n1
9.05 µM	CC(=O)Nc1cccc(C(=O)NNC(=O)c2n[nH]c(=O)c3ccccc23)c1
8.22 µM	COc1cccc(C=NNC(=O)C2=NNC(=O)C2C)c1O (stereo unspecified)
12.5 µM	CCOc1cccc(C=NNC(=O)c2cc(-c3cccn3C)n[nH]2)c1O
7.65 µM	Cc1cc(C(=O)N/N=C\c2cc(C(C)(C)C)ccc2O)n[nH]1
10.2 µM	O=C(N/N=C/c1ccccc1O)c1cc(C2CC2)[nH]n1
9.41 µM	O=C(NC(=S)NNC(=O)c1ccccc1O)c1ccc(F)cc1
18.9 µM	Cc1ccc(O)c(C=NNC(=O)c2[nH]ncc2Br)c1
